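Values below derive from 48-hour exposures of cells grown in 96-well plates, with endpoints linearly interpolated between the two concentrations bracketing the appropriate inhibition level. GI50: concentration for 50% inhibition of growth. TGI is the concentration that stops growth completely.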
Key:
Experiment in all cases: NCI tumour cell line growth inhibition, 48 h
786-0 renal = system: 786-0 renal
A498 renal = system: A498 renal
SW-620 colon = system: SW-620 colon
MCF7 breast = system: MCF7 breast
UACC-62 melanoma = system: UACC-62 melanoma
SK-OV-3 ovarian = system: SK-OV-3 ovarian
IGROV1 ovarian = system: IGROV1 ovarian
COLO 205 colon = system: COLO 205 colon
SK-MEL-28 melanoma = system: SK-MEL-28 melanoma
UO-31 renal = system: UO-31 renal
SR leukemia = system: SR leukemia
SNB-75 CNS = system: SNB-75 CNS
HCT-15 colon = system: HCT-15 colon
RPMI-8226 leukemia = system: RPMI-8226 leukemia
OVCAR-4 ovarian = system: OVCAR-4 ovarian
TK-10 renal = system: TK-10 renal
SF-295 CNS = system: SF-295 CNS
SK-MEL-5 melanoma = system: SK-MEL-5 melanoma
U251 CNS = system: U251 CNS
HS 578T breast = system: HS 578T breast
CAKI-1 renal = system: CAKI-1 renal
LOX IMVI melanoma = system: LOX IMVI melanoma
T-47D breast = system: T-47D breast
HCC-2998 colon = system: HCC-2998 colon
NCI/ADR-RES ovarian = system: NCI/ADR-RES ovarian
NCI-H226 lung = system: NCI-H226 lung
OVCAR-5 ovarian = system: OVCAR-5 ovarian
MALME-3M melanoma = system: MALME-3M melanoma
NCI-H522 lung = system: NCI-H522 lung

In the case of `CCO/C=N/C1=C(C#N)C(c2ccc(F)cc2)c2sc3c(C)cccc3c2O1` (stereo not drawn), the GI50 (786-0 renal) is reported as 0.614 µM, the TGI (786-0 renal) is reported as 12.9 µM and the GI50 (A498 renal) is reported as 0.261 µM. It also gave a TGI (A498 renal) of 1.48 µM, a GI50 (SW-620 colon) of 0.401 µM and a TGI (SW-620 colon) of 15.8 µM. It also gave a GI50 (MCF7 breast) of 0.271 µM, a TGI (MCF7 breast) of 13.1 µM and a GI50 (UACC-62 melanoma) of 0.404 µM. It also gave a TGI (UACC-62 melanoma) of 19.5 µM, a GI50 (SK-OV-3 ovarian) of 0.834 µM and a TGI (SK-OV-3 ovarian) of 25.5 µM. It also gave a GI50 (IGROV1 ovarian) of 0.379 µM, a TGI (IGROV1 ovarian) of 14.9 µM and a GI50 (COLO 205 colon) of 0.401 µM. It also gave a TGI (COLO 205 colon) of 2.25 µM, a GI50 (SK-MEL-28 melanoma) of 1.4 µM and a TGI (SK-MEL-28 melanoma) of 20.6 µM. The GI50 (UO-31 renal) was 0.572 µM, the TGI (UO-31 renal) was 15.9 µM and the GI50 (SR leukemia) was 0.524 µM. The TGI (SR leukemia) was 60.1 µM, the GI50 (SNB-75 CNS) was 0.114 µM and the TGI (SNB-75 CNS) was 2.64 µM. It also gave a GI50 (HCT-15 colon) of 0.336 µM, a TGI (HCT-15 colon) of 11.5 µM and a GI50 (RPMI-8226 leukemia) of 0.371 µM. It also gave a TGI (RPMI-8226 leukemia) of 11 µM, a GI50 (OVCAR-4 ovarian) of 1.7 µM and a TGI (OVCAR-4 ovarian) of 24.8 µM. The GI50 (TK-10 renal) was 11.8 µM, the TGI (TK-10 renal) was 27.5 µM and the GI50 (SF-295 CNS) was 0.25 µM. It also gave a TGI (SF-295 CNS) of 2.8 µM, a GI50 (SK-MEL-5 melanoma) of 0.487 µM and a TGI (SK-MEL-5 melanoma) of 2.53 µM. The GI50 (U251 CNS) was 0.473 µM, the TGI (U251 CNS) was 15.5 µM and the GI50 (HS 578T breast) was 0.325 µM. The TGI (HS 578T breast) was 14.8 µM, the GI50 (CAKI-1 renal) was 0.386 µM and the TGI (CAKI-1 renal) was 17.2 µM. The GI50 (LOX IMVI melanoma) was 0.626 µM, the TGI (LOX IMVI melanoma) was 14.1 µM and the GI50 (T-47D breast) was 0.818 µM. It also gave a TGI (T-47D breast) of 66.9 µM, a GI50 (HCC-2998 colon) of 0.421 µM and a TGI (HCC-2998 colon) of 12.9 µM. The GI50 (NCI/ADR-RES ovarian) was 0.22 µM, the TGI (NCI/ADR-RES ovarian) was 12.7 µM and the GI50 (NCI-H226 lung) was 1.29 µM. For the same molecule, the TGI (NCI-H226 lung) was 12.1 µM, the GI50 (OVCAR-5 ovarian) was 0.574 µM and the TGI (OVCAR-5 ovarian) was 16.4 µM. It also gave a GI50 (MALME-3M melanoma) of 10.6 µM, a TGI (MALME-3M melanoma) of 24.8 µM and a GI50 (NCI-H522 lung) of 0.214 µM. For the same molecule, the TGI (NCI-H522 lung) was 11.7 µM.

— PubChem BioAssay (NCI)
